{"source": "paper PMC2836207", "about": "(Journal of medicinal chemistry, 2009)", "target": "MDA-MB-231 cells (Homo sapiens, UniProt P05556+P26006)", "sequence (P26006 33-1051)": "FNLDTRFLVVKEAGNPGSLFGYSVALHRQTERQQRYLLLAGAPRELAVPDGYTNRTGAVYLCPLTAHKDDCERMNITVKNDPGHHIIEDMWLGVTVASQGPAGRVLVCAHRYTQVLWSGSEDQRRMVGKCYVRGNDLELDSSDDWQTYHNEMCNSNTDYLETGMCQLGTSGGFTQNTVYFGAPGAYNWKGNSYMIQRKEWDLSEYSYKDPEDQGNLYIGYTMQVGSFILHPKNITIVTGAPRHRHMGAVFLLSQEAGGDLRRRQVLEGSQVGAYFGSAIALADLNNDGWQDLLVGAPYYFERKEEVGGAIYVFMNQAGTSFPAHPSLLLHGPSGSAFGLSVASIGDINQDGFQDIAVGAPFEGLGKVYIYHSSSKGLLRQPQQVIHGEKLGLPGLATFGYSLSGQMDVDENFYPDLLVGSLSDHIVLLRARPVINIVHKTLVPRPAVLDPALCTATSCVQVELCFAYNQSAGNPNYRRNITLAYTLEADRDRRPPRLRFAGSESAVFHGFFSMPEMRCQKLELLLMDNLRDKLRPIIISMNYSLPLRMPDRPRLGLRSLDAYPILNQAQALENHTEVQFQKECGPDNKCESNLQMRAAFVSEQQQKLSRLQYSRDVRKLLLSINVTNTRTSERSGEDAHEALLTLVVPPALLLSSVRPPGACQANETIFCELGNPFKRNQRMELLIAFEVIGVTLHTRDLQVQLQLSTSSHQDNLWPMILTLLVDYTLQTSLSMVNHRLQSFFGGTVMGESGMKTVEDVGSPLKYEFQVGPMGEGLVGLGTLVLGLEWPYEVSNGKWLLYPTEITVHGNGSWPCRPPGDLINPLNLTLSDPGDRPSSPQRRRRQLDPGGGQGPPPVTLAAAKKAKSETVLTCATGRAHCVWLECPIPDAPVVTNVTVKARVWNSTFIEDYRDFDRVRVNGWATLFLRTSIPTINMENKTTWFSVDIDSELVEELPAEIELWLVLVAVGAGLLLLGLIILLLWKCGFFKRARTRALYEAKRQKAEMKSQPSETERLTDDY", "sequence (P05556 21-798)": "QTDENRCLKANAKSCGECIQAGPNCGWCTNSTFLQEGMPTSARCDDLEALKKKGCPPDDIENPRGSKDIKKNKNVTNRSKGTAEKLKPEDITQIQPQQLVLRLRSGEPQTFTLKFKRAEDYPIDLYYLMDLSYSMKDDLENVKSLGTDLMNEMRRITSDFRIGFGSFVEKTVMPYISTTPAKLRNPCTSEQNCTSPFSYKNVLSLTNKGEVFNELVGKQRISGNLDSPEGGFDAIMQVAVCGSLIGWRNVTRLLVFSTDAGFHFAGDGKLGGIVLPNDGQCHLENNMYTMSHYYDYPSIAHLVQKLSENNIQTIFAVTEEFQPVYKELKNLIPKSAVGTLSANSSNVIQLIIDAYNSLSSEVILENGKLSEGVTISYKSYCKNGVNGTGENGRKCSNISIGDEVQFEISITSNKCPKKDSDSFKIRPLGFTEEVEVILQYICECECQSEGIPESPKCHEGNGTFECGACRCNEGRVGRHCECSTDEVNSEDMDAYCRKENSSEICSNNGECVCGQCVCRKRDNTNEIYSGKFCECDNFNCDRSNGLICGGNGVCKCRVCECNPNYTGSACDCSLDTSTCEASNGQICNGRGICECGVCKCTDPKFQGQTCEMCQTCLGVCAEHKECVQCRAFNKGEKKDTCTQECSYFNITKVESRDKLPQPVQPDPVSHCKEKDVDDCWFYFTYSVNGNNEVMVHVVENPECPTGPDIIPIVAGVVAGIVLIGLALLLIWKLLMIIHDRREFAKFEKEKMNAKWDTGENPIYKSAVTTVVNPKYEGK", "assay": "on-bead whole cell binding assay", "type": "cell-based", "settings": "cell-growth-on-bead assay", "data": [{"substance": "cEGLGEWc", "values": [{"measurement": "cell binding to peptide bead", "result": "shown to bind"}]}]}
